The values that follow are results of earlier work, collected in patent US7691896B2, “Analogs of salinosporamide A” (President and Fellows of Harvard College, priority 2005, dated 2010).

Peptide text beside a SMILES is read from it. * marks the point of attachment. Cbz = O=C(OCc1ccccc1)*

The series has as its system PC12 cells. The following applies: Tsubuki et al. 1993.

As for `CC(C)C[C@@H](C=O)NC(=O)[C@H](CC(C)C)NC(=O)[C@H](CC(C)C)NC(=O)OCc1ccccc1` [benzyloxycarbonyl (Z)-Leu-Leu-leucinal] (Cbz-Leu-Leu-Leu-aldehyde), the “optimal concentration inducing neurite outgrowth” value is 30 nM.
